The source of these data is patent publication US20140113904A1, “TREATMENT OF CANCER WITH TOR KINASE INHIBITORS” (SIGNAL PHARMACEUTICALS, LLC, priority 2012, published 2014).

One assay deals with pS6. As to the kind of experiment: pS6 in PC3 tumors, MSD (Compound 1). The class given is in vivo, SCID mice. Particulars: for pS6 inhibition in tumor: through 24 hours. On the procedure: The plasma and tumor samples were collected at various time points following compound administration as described.
Mice were monitored daily for clinical signs and body weight changes. At the end of the study, mice were euthanized and plasma and tumor samples were collected for PK/PD determination. PD markers, pS6 and pAkt, were measured using MSD technology.
After the last measurement, the experiment was terminated by taking the plasma and tumor samples for PK and PD measurements. Compound concentrations in plasma and tumor were determined by LC-MS/MS. PD markers, pS6 and pAkt, were measured using MSD technology.
At predetermined time points following dosing, mice were euthanized and plasma and tumor samples were collected for PK/PD determination. Compound concentrations in plasma and tumor were determined by LC-MS/MS. PD markers, pS6 and pAkt, were measured using Mesoscale technology.
For Mesoscale discovery assays, tissue samples were homogenized in lysis buffer containing protease and phosphatase inhibitors and centrifuged for 10 minutes at 1200 rpm at 4° C. Supernatants were sonicated for 1 minute at 4° C., aliquoted and stored at −80° C. Protein concentrations in samples were determined using BCA Protein Assay Reagent Kit (Thermo Scientific). Meso Scale Discovery kits and protocol for measuring the pS6 and pAkt/Total Akt kits were used. MSD 96-well plates spotted with pS6, pAkt/total Akt were blocked with blocking solution for 5 minutes followed by a wash with wash buffer. […] of tumor lysates were added to each well and incubated for 2 hours followed by a 4× wash with a wash buffer. Detection antibody was added to each well and incubated in the dark for 1 hour at 4° C. The plates were then washed and bound antigen was read using an MSD SECTOR™ instrument.

Another assay relates to S6RP (S235/236). As to the kind of experiment: Phospho-S6RP (S235/S236) in PC-3 cell lysates, MSD (Compound 2). It counts as cell-based. The conditions noted are these: Homo sapiens; PC-3, 1 hour; read-out: mTORC1 S6RP (S235/236) IC50.

For the compound `CO[C@H]1CC[C@H](N2C(=O)CNc3ncc(-c4ccc(C(C)(C)O)nc4)nc32)CC1` [Compound 1, 7-(6-(2-hydroxypropan-2-yl)pyridin-3-yl)-1-((1r,4r)-4-methoxycyclohexyl)-3,4-dihydropyrazino-[2,3-b]pyrazin-2(1H)-one], the “inhibition of pS6” value in the assay with pS6 (0.3 mg/kg single dose, 0.5 h, data not shown) was 81%; in the assay on pS6 (10 mg/kg single dose, up to 8 hours), over 80%. The pS6 inhibition result in the assay on pS6 (0.3 mg/kg single dose, up to 2 hours, data not shown) is recorded as “Approximately 80%”; in the assay with pS6 (1 mg/kg single dose, up to 4 hours), “Approximately 80%”. Also, the “PD Marker Inhibition (%) pS6” value with pS6 (1 mg/kg single oral dose, 0.5 h) is 80.8%; in the assay on pS6 (1 mg/kg single oral dose, 2 h) it was 82.8%; in the assay on pS6 (1 mg/kg single oral dose, 4 h) it was 78.6%; in the assay on pS6 (1 mg/kg single oral dose, 6 h), 53.1%; in the assay with pS6 (1 mg/kg single oral dose, 10 h) it was 14.4%; with pS6 (1 mg/kg single oral dose, 24 h) it was 20.6%. The “PD Marker Inhibition (%) pS6” value was found to be 79.5% in the assay on pS6 (10 mg/kg single oral dose, 1 h); 91.9% in the assay on pS6 (10 mg/kg single oral dose, 3 h); 91.2% in the assay with pS6 (10 mg/kg single oral dose, 8 h); 32.4% in the assay with pS6 (10 mg/kg single oral dose, 16 h); 32.7% in the assay on pS6 (10 mg/kg single oral dose, 24 h); 39.5% in the assay with pS6 (10 mg/kg single oral dose, 48 h). In addition, the “PD Marker Inhibition (%) pS6” value with pS6 (10 mg/kg single oral dose, 72 h) is reported as 47.9%; in the assay on pS6 (25 mg/kg single oral dose, 1 h) it was 87.9%; in the assay on pS6 (25 mg/kg single oral dose, 3 h), 95.1%; in the assay with pS6 (25 mg/kg single oral dose, 8 h), 92.3%; in the assay on pS6 (25 mg/kg single oral dose, 16 h), 92.1%; in the assay on pS6 (25 mg/kg single oral dose, 24 h) it was 83.7%. The “PD Marker Inhibition (%) pS6” value with pS6 (25 mg/kg single oral dose, 48 h) is on record as 47.2%; in the assay with pS6 (25 mg/kg single oral dose, 72 h) it was 68.3%. Further, the “inhibition of pS6 in tumors” value with pS6 (10 mg/kg QD 5 days, 24 hours after the last dose) was 22%. In the assay with pS6 (25 mg/kg single dose, up to 24 hours), the “inhibition of pS6 levels” value was over 80%. In addition, the “pS6 inhibition in tumor” value with pS6 (30 mg/kg single oral dose) is 78%; with pS6 (100 mg/kg single oral dose), 91%. Moreover, the “both PD markers (pS6, pAKT) in tumors” value with pS6 (25 and 50 mg/kg QD, 24 hr timepoint, data not shown) is recorded as “significantly inhibited”.

For the compound `CCN1C(=O)CNc2ncc(-c3ccc(-c4nc[nH]n4)nc3C)nc21` [Compound 2, 1-ethyl-7-(2-methyl-6-(1H-1,2,4-triazol-3-yl)pyridin-3-yl)-3,4-dihydropyrazino[2,3-b]pyrazin-2(1H)-one], the IC50 with S6RP (S235/236) was 23 ± 7 nM.
